From ChEMBL document CHEMBL1132769, “Diphenyl sulfoxides as selective antagonists of the muscarinic M2 receptor” (Bioorg Med Chem Lett, 2000) come the findings set out here.

In experiment [1] the target is T1, Muscarinic acetylcholine receptor M2 (Homo sapiens, UniProt P08172).
T1 sequence (P08172 whole entry): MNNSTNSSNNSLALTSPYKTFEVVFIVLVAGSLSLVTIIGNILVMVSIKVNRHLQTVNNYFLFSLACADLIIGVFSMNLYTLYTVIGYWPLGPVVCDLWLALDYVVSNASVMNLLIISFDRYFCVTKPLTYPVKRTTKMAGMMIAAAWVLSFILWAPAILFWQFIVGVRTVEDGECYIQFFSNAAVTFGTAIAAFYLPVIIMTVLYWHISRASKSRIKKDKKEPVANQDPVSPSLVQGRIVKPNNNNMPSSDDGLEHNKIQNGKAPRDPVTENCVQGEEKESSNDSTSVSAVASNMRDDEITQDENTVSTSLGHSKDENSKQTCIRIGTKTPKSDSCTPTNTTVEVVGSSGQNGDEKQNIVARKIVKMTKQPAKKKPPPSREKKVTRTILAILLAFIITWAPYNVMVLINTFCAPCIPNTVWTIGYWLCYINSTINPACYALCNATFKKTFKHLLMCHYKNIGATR
As to the kind of experiment: Binding affinity towards the cloned human Muscarinic acetylcholine receptor M2.

Experiment [2] deals with T2, Muscarinic acetylcholine receptor M1 (Homo sapiens, UniProt P11229).
T2 sequence (P11229 whole entry): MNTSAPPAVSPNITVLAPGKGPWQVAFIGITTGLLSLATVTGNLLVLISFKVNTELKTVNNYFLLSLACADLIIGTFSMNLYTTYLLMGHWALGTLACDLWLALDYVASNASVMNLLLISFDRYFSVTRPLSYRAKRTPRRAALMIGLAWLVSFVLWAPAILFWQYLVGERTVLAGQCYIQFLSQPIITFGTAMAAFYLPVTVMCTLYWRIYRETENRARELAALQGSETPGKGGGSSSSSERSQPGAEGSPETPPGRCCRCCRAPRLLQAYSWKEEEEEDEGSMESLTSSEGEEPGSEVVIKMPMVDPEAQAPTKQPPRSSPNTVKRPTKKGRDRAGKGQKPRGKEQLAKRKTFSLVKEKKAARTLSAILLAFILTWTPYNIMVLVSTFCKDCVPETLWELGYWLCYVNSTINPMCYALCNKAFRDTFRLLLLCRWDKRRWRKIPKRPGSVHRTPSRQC
As to the kind of experiment: Binding affinity towards the cloned human Muscarinic acetylcholine receptor M1.

For experiment [3], the target named is Muscarinic acetylcholine receptors; M1 & M2 (Homo sapiens) (UniProt P11229+P08172). Put plainly: Ratio of binding affinity to M1 receptor compared to that of M2 receptor. Type of experiment: protein assay.

Molecules are shown by their SMILES. Values joined by “and” are separate entries in the source; they are usually repeats but may differ in a detail not shown here. Equal entries are not always repeated.

Consider `COc1ccc([S@@+]([O-])c2ccc(C(C#N)N3CCN(C4CCCCC4)CC3)cc2)cc1` (single isomer, unassigned; form 1) [listing 1 of 2 here], for which the Ki was 0.009 µM and 0.017 µM in experiment [1]; 0.14 µM and 0.253 µM in experiment [2].
Take `COc1ccc([S@@+]([O-])c2ccc(C(C#N)N3CCN(C4CCCCC4)CC3)cc2)cc1` (single isomer, unassigned; form 2) [listing 1 of 2 here]: the Ki in experiment [1] was 0.0038 µM and 0.02 µM; in experiment [2] it was 0.083 µM and 0.18 µM.
Turning to `CC(c1ccc(S(=O)(=O)c2ccc(S(C)(=O)=O)cc2)cc1)N1CCN(C2CCCCC2)CC1` (stereo unspecified), the inhibition constant (Ki) was 0.036 µM in experiment [1] and 0.106 µM in experiment [2]. The Ratio in experiment [3] turned out to be 3.
Consider `COc1ccc([S+]([O-])c2ccc(C(N3CCN(C4CCCCC4)CC3)C(F)(F)F)cc2)cc1` (stereo unspecified), for which the Ki came out at 0.005 µM in experiment [1] and 0.023 µM in experiment [2]. For the same compound, the Ratio in experiment [3] is 5.
The matching figures for `COc1ccc([S+]([O-])c2ccc(C(C(N)=O)N3CCN(C4CCCCC4)CC3)cc2)cc1` (stereo unspecified): 0.04 µM, 0.242 µM and 6.
Regarding `COc1ccc([S@@+]([O-])c2ccc(C(C#N)N3CCN(C4CCCCC4)CC3)cc2)cc1` (single isomer, unassigned; form 1) [listing 2 of 2 here], in experiment [3], the Ratio was found to be 15.
With `COc1ccc([S@@+]([O-])c2ccc(C(C#N)N3CCN(C4CCCCC4)CC3)cc2)cc1` (stereo in doubt; 1) [listing 1 of 2 here], the affinity in experiment [1] corresponds to a Ki of 0.0027 µM.
Regarding `CC(c1ccc(S(=O)(=O)c2ccccc2)cc1)N1CCN(CCO)CC1` (stereo unspecified), the inhibition constant Ki in experiment [1] came out at 0.026 µM; in experiment [2], 0.077 µM. In addition, the Ratio in experiment [3] came out at 3.
For `Cc1ccc(S(=O)(=O)c2ccc(C(C)N3CCN(C4CCCCC4)CC3)cc2)cc1` (stereo unspecified), in that order: 0.0008 µM, 0.011 µM and 14.
The matching figures for `CC(c1ccc(S(=O)(=O)c2ccccc2)cc1)N1CCN(C)CC1` (stereo unspecified): 0.034 µM, 0.096 µM and 3.
`CCOC(=O)N1CCN(C(C)c2ccc(S(=O)(=O)c3ccccc3)cc2)CC1` (stereo unspecified): the results for the Ki in experiment [1] and in experiment [2] were 0.135 µM and 0.2 µM, respectively. In addition, the Ratio in experiment [3] is 1.5.
`COc1ccc([S@@+]([O-])c2ccc(C(C#N)N3CCN(C4CCCCC4)CC3)cc2)cc1` (single isomer, unassigned; form 2) [listing 2 of 2 here]: in experiment [3], the Ratio is 22 and 9.
Consider `COc1ccc([S+]([O-])c2ccc(C(C#N)N3CCN(C4CCCCC4)CC3)cc2)cc1` (stereo unspecified), for which the inhibition constant (Ki) was 0.008 µM in experiment [1] and 0.117 µM in experiment [2]. The Ratio in experiment [3] came to 14.
`COc1ccc([S+]([O-])c2ccc(C(C)N3CCN(C4CCCCC4)CC3)cc2)cc1` (stereo unspecified): the Ratio in experiment [3] came to 6.
With `CC(c1ccc(S(=O)(=O)c2ccccc2)cc1)N1CCN(C2CCCCC2)CC1` (stereo unspecified), the inhibitory constant (Ki) in experiment [1] is 0.0002 µM; in experiment [2], 0.0013 µM. Besides, the Ratio in experiment [3] is 6.
The matching figures for `CC(c1ccc(S(=O)(=O)c2ccc(C(C)(C)C)cc2)cc1)N1CCN(C2CCCCC2)CC1` (stereo unspecified): 0.033 µM, 0.085 µM and 2.6.
For `COc1ccc([S@@+]([O-])c2ccc(C(C#N)N3CCN(C4CCCCC4)CC3)cc2)cc1` (stereo in doubt; 1) [listing 2 of 2 here], the Ratio in experiment [3] was determined as 40.
With `CC(c1ccc(S(=O)(=O)c2ccccc2)cc1)N1CCN(c2ccccc2)CC1` (stereo unspecified), the Ki in experiment [1] turned out to be 4.6 µM; in experiment [2], 4.77 µM. Further, the Ratio in experiment [3] stood at 1.
For `COc1ccc(S(=O)(=O)c2ccc(C(C)N3CCN(C4CCCCC4)CC3)cc2)cc1` (stereo unspecified), in that order: 0.0006 µM, 0.006 µM and 10.
Take `CC(c1ccc(S(=O)(=O)c2ccccc2)cc1)N1CCNCC1` (stereo unspecified): the inhibition constant (Ki) was 0.037 µM in experiment [1] and 0.057 µM in experiment [2]. The Ratio in experiment [3] was determined as 1.6.
For `COc1ccc([S+]([O-])c2ccc(C(C3CCCCC3)N3CCN(C4CCCCC4)CC3)cc2)cc1` (stereo unspecified), in that order: 0.017 µM, 0.052 µM and 3.
